Data reported in patent US7981927B2, “Steroids derivatives as selective progesterone receptor modulators” (Janssen Pharmaceutica N.V., priority 2007, dated 2011).

System: T47D human breast cancer cells
Assay: T47D human breast cancer cells alkaline phosphatase assay
Assay type: cell-based
Conditions: 24 h with test compound, alkaline phosphatase luminescence readout
Protocol: T47D human breast cancer cells were grown in RPMI medium without phenol red (Invitrogen) containing 10% (v/v) heat-inactivated fetal bovine serum (FBS; Hyclone), 1% (v/v) penicillin-streptomycin (Invitrogen), 1% (w/v) glutamine (Invitrogen), and […] insulin (Sigma). Incubation conditions were 37° C. in a humidified 5% (v/v) carbon dioxide environment.
The cells were plated in 96-well tissue culture plates at 10,000 cells per well in assay medium [RPMI medium without phenol red (Invitrogen) containing 5% (v/v) charcoal-treated FBS (Hyclone) and 1% (v/v) penicillin-streptomycin (Invitrogen)]. Two days later, the medium was decanted and test compound or control were added at a final concentration of 0.1% (v/v) dimethyl sulfoxide in fresh assay medium. Twenty-four hours later, an alkaline phosphatase assay was performed using a SEAP kit (BD Biosciences Clontech, Palo Alto, Calif.). Briefly, the medium was decanted and the cells were fixed for 30 minutes at room temperature with 5% (v/v) formalin (Sigma). The cells were washed once with room temperature Hank's buffered saline solution (Invitrogen). […] After 1 hour incubation at room temperature in the dark, the lysate was transferred to a white 96-well plate (Dynex) and luminescence was read using a LuminoSkan Ascent (Thermo Electron, Woburn, Mass.). […]

| Compound | IC50 |
| --- | --- |
| CN(C)c1ccc([C@@H]2C[C@]3(C)C(=O)OCC[C@H]3[C@@H]3CCC4=CC(=O)CCC4=C23)cc1 (stereo in doubt) [compound 1, 11-(4-Dimethylamino-phenyl)-12a-methyl-3,4,4a,5,6,9,10,11,12,12a-decahydro-4bH-2-oxa-chrysene-1,8-dione] | 750 nM |
| CC#C[C@]1(O)OCC[C@H]2[C@@H]3CCC4=CC(=O)CCC4=C3[C@@H](c3ccc(N(C)C)cc3)C[C@@]21C (stereo in doubt) [compound 2, 11-(4-Dimethylamino-phenyl)-1-hydroxy-12a-methyl-1-prop-1-ynyl-1,3,4,4a,4b,5,6,9,10,11,12,12a-dodecahydro-2-oxa-chrysen-8-one] | 33 nM |
